Experimental data reported in ChEMBL document CHEMBL4270637, “Small molecule-induced degradation of the full length and V7 truncated variant forms of human androgen receptor” (Eur J Med Chem, 2018).
Activity calls are given as the source filed them. The calls are words filed in the database; no cut-off is given here.

Key:
LNCaP [1] = assay: Cytotoxicity against human LNCAP cells harboring AR2PB-eGFP construct after 72 hrs by MTS assay; type: cell-based
PC-3 [2] = assay: Cytotoxicity against human PC3 cells harboring pGL3-ARR3tk-NLu/human AR V7 truncated mutant after 72 hrs by MTS assay; type: cell-based; details: pc-3, 72 h
Androgen receptor [3] = target: T1, Androgen receptor (Homo sapiens, UniProt P10275); assay: Inhibition of R1881-induced full length AR transcriptional activity in human LNCAP cells harboring AR2PB-eGFP construct after 72 hrs by fluorescence assay; type: cell-based
T1 sequence (P10275 whole entry): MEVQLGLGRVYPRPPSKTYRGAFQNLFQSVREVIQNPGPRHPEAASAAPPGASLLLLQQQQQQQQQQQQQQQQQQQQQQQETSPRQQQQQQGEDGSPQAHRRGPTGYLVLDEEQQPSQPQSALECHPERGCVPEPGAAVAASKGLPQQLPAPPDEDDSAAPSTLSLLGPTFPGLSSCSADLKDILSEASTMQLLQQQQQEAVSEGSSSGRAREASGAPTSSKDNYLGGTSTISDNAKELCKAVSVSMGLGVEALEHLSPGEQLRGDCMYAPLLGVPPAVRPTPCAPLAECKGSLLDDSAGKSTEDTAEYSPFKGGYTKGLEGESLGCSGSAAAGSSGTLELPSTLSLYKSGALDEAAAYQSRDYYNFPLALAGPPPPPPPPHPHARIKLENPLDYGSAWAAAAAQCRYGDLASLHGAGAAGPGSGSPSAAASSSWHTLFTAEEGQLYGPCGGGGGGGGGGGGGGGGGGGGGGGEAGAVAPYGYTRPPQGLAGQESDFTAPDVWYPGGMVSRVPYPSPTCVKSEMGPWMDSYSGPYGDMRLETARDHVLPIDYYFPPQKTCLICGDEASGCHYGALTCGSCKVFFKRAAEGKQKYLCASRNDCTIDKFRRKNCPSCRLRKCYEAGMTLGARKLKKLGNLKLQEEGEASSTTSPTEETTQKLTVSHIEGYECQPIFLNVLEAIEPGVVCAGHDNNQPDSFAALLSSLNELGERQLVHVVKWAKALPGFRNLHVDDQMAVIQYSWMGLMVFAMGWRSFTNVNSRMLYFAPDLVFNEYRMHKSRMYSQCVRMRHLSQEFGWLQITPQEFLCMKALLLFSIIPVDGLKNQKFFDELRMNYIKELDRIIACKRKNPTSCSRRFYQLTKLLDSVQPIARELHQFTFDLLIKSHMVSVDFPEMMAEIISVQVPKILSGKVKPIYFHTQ

Androgen receptor [4] = target: Androgen receptor (Homo sapiens, UniProt P10275); assay: Inhibition of R1881-induced transcriptional activity of human AR V7 truncated mutant expressed in human PC3 cells harboring pGL3-ARR3tk-NLuc after 24 hrs by luciferase reporter gene assay; type: cell-based
Androgen receptor [5] = target: T1, Androgen receptor; assay: Inhibition of full length AR transcriptional activity in human LNCAP cells harboring AR2PB-eGFP construct assessed as reduction in R1881-induced secreted PSA level after 72 hrs by fluorescence assay; type: cell-based
CWR22R [6] = assay: Cytotoxicity against human 22Rv1 cells assessed as growth inhibition at lower concentration after 72 hrs by presto-blue dye based assay; type: functional, cell-based
[7] = target: T2, Androgen receptor (Homo sapiens) (UniProt P10275); assay: Induction of full length AR degradation in human LNCAP cells at 2 to 20 uM after 5 hrs by Western blot analysis; type: cell-based
T2 sequence (whole entry): T1 sequence (P10275 whole entry)

LNCaP [8] = assay: Induction of apoptosis in human LNCAP cells assessed as PARP cleavage at 2 to 20 uM after 5 hrs by Western blot analysis; type: functional, cell-based
[9] = target: T2, Androgen receptor (Homo sapiens); assay: Induction of full length AR degradation in human LNCAP cells assessed as reduction in AR mRNA level at 2 to 20 uM after […] by RT-PCR method; type: cell-based
[10] = target: T2, Androgen receptor (Homo sapiens); assay: Inhibition of R1881-induced transcriptional activity of human AR expressed in human PC3 cells harboring pGL3-ARR3tk-NLuc at 2 uM after 24 hrs by luciferase reporter gene assay; type: cell-based
[11] = target: Estrogen receptor (Homo sapiens) (UniProt Q92731+P03372); assay: Inhibition of estradiol-induced transcriptional activity of human ER expressed in human PC3 cells harboring pGL3-ERE-NLuc at 2 uM after 24 hrs by luciferase reporter gene assay; type: cell-based
[12] = target: T3, Glucocorticoid receptor (Homo sapiens) (UniProt P04150); assay: Inhibition of dexamethasone-induced transcriptional activity of human GR expressed in human PC3 cells harboring pGL3-ARR3tk-NLuc at 2 uM after 24 hrs by luciferase reporter gene assay; type: cell-based
T3 sequence (whole entry): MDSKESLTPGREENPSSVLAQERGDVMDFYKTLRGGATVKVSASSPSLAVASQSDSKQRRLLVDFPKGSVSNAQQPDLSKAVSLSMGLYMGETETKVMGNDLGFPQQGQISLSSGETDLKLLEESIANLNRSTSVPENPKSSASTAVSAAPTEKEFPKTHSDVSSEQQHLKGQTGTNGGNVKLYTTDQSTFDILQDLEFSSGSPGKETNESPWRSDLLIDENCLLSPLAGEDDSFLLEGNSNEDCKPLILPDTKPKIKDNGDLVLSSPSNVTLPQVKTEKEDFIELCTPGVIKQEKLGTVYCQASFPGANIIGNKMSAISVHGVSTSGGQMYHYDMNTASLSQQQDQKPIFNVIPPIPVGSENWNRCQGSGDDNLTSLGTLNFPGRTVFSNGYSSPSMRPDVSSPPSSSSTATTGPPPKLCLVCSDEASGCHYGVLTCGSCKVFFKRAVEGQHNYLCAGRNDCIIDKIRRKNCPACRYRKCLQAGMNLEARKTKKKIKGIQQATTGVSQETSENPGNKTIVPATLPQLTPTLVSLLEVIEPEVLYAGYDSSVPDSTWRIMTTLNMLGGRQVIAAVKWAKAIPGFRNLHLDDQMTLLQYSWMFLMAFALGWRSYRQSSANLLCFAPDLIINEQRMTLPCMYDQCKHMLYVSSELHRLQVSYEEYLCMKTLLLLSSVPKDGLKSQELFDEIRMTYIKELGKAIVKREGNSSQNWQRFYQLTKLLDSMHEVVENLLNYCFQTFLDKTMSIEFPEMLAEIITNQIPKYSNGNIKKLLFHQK

[13] = target: T4, Progesterone receptor (Homo sapiens) (UniProt P06401); assay: Inhibition of progesterone-induced transcriptional activity of human PR expressed in human PC3 cells harboring pGL3-ARR3tk-NLuc at 2 uM after 24 hrs by luciferase reporter gene assay; type: cell-based
T4 sequence (whole entry): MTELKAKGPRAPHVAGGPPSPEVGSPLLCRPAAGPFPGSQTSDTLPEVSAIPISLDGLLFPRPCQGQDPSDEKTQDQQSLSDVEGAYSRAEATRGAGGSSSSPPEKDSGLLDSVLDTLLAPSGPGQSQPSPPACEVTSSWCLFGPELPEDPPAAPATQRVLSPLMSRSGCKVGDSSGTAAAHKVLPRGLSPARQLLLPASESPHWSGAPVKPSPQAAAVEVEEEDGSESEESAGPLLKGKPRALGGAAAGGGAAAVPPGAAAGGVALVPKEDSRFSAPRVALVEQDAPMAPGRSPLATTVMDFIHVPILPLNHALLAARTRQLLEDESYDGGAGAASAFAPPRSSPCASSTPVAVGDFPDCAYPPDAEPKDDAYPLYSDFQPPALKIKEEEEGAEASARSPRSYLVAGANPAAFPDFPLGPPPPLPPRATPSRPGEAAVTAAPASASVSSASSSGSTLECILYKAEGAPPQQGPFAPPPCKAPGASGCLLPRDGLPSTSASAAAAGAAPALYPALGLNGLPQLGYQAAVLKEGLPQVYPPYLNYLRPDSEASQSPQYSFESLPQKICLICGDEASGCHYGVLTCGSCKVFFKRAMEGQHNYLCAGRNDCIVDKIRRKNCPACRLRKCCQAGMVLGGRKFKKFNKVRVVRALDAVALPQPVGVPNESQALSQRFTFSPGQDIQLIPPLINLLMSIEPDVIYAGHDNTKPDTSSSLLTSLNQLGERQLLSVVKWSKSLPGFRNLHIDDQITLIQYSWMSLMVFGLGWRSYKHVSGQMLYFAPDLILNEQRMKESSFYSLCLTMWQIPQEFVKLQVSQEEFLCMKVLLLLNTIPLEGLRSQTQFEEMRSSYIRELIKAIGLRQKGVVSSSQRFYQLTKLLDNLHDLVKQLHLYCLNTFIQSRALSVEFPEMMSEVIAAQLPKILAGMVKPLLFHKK

[14] = target: T2, Androgen receptor (Homo sapiens); details: at 10 µM
Description: Antagonist activity at full length YFP-tagged AR (unknown origin) expressed in HEK293T cells assessed as inhibition of R1881-induced nuclear translocation at 10 uM after 4 hrs by DAPI staining based confocal microscopic method

CWR22R [15] = assay: Cytotoxicity against human 22Rv1 cells assessed as growth inhibition at 0.5 uM after 72 hrs by presto-blue dye based assay; type: functional, cell-based
PC-3 [16] = assay: Cytotoxicity against human PC3 cells assessed as growth inhibition after 72 hrs by presto-blue dye based assay; type: cell-based; details: pc-3, 72 h
Androgen receptor [17] = target: T5, Androgen receptor (Rattus norvegicus, UniProt P15207); assay: Displacement of Fluormone-DHT from rat GST-tagged rat AR LBD expressed in insect cells after 4 hrs by fluorescence polarization assay
T5 sequence (P15207 whole entry): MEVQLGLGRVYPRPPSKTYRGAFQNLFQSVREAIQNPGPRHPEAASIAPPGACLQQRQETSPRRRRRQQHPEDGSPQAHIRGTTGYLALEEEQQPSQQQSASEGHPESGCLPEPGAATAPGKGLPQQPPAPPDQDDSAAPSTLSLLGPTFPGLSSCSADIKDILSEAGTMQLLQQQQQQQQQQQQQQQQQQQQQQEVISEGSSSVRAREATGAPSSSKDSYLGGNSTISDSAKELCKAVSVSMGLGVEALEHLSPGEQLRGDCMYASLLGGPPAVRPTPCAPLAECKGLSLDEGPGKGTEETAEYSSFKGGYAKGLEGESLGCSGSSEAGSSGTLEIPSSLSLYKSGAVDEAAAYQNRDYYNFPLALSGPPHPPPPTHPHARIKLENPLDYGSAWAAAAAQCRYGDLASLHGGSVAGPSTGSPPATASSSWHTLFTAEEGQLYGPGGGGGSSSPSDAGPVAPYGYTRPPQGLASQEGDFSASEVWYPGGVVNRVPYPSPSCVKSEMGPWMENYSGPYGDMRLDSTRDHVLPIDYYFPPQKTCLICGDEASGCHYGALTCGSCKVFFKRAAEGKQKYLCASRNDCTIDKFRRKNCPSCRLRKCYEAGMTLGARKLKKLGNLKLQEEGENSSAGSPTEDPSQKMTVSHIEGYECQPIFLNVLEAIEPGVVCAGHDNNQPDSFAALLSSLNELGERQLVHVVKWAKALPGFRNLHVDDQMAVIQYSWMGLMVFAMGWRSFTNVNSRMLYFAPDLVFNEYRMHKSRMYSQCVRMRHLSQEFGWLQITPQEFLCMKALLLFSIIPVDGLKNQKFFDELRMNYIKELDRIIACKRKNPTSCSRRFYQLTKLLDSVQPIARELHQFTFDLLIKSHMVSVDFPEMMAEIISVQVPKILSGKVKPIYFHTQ

Tubulin = assay: Inhibition of tubulin polymerization (unknown origin); type: protein-complex assay, Homo sapiens
CWR22R [18] = assay: Cytotoxicity against human 22Rv1 cells assessed as growth inhibition at 5 uM after 72 hrs by presto-blue dye based assay; type: functional, cell-based

Row | SMILES | Activity (LNCaP [1]) | Activity (PC-3 [2]) | IC50 (Androgen receptor [3]) [µM] | IC50 (Androgen receptor [4]) [µM] | IC50 (Androgen receptor [5]) [µM] | growth inhibition (GI) (CWR22R [6]) | Activity [7] | Activity (LNCaP [8]) | Activity [9] | inhibition [10] | inhibition [11] | inhibition [12] | inhibition [13] | inhibition [14] | growth inhibition (GI) (CWR22R [15]) | growth inhibition (GI) (PC-3 [16]) | IC50 (Androgen receptor [17]) [µM] | IC50 (Tubulin) [µM] | growth inhibition (GI) (CWR22R [18])
1 | O=C1c2c(Cl)cccc2C(=Cc2ccccc2O)c2cccc(Cl)c21 | Toxic | Toxic | – | – | – | – | – | – | – | – | – | – | – | – | – | – | – | – | –
2 | COc1ccc(C=C2c3ccccc3C(=O)c3ccccc32)c(O)c1 | – | – | 0.232 | < 10 | 0.1 | Active | Active | inactive | inactive | Active | inactive | inactive | inactive | inactive | – | – | – | – | –
3 | COc1ccc(C=C2c3cccc(Cl)c3C(=O)c3c(Cl)cccc32)c(OC)c1O | – | – | 1.14 | 10 | 0.17 | Active | inactive | inactive | – | – | – | – | – | inactive | – | – | – | – | –
4 | COc1cc(C=C2c3cccc(Cl)c3C(=O)c3c(Cl)cccc32)cc(OC)c1O | – | – | > 10 | > 10 | – | – | – | – | – | – | – | – | – | – | – | – | – | – | –
5 | O=C1c2ccccc2C(=Cc2cccc(O)c2)c2ccccc21 | – | – | 0.316 | < 10 | 0.35 | – | Active | inactive | inactive | Active | inactive | inactive | inactive | inactive | Active | Toxic | 0.625 to 2.5 | 10 | –
6 | COc1cccc(C=C2c3cccc(Cl)c3C(=O)c3c(Cl)cccc32)c1O | – | – | 1.48 | 10 | 0.73 | – | Active | inactive | – | – | – | – | – | inactive | – | – | – | – | Active
7 | COc1ccc(C=C2c3cccc(Cl)c3C(=O)c3c(Cl)cccc32)cc1O | – | – | 1.89 to 6 | 10 | 0.34 | Active | inactive | inactive | – | – | – | – | – | inactive | – | – | – | – | –
